Measured values as given in patent US11395857B2, “Radiolabeled melanocortin 1 receptor-specific alpha-melanocyte-stimulating hormone analogues for imaging or therapy” (PROVINCIAL HEALTH SERVICES AUTHORITY, priority 2018, dated 2022).
Like-named read-outs stand apart in the source and are kept apart here.

Experiments:
[1] = Biodistribution of 177Lu-labeled αMSH analogues in mice bearing B16F10 mouse melanoma; type: in vivo, C57BL/6J mice; details: mouse, iv, total radioactivity, C57BL/6J mice, B16F10 melanoma
Method: (§1) The B16-F10 mouse melanoma cells were cultured and inoculated in mice as described in Example 1.
(§2) For biodistribution studies, approximately 1-2 MBq of ^177Lu-labeled αMSH analogues via tail vein under anesthesia. At 1, 4, 24, and 120 h p.i., the mice were euthanized by CO2 inhalation. Organs/tissues were harvested and the radioactivity was measured as described in Example 1.

B16F10 mouse melanoma = assay: as above; type: in vivo, C57BL/6J mice; details: C57BL/6J mice, B16F10 melanoma
Method: as §1, §2

CCCC[C@H](NC(=O)CN1CCC(NC(=O)[C@H](CCCCNC(=O)CN2CCN(CC(=O)O)CCN(CC(=O)O)CCN(CC(=O)O)CC2)NC(=O)[C@H](CCC(=O)O)NC(=O)CCCc2ccc(I)cc2)CC1)C(=O)N[C@H]1CC(=O)NCCCC[C@@H](C(N)=O)NC(=O)[C@H](Cc2c[nH]c3ccccc23)NC(=O)[C@H](CCCNC(=N)N)NC(=O)[C@@H](Cc2ccccc2)NC(=O)[C@H](Cc2c[nH]cn2)NC1=O [^177Lu-labeled CCZ01082, metal not drawn]
tissue uptake at 1 h ([1]; male, seminal glands, 1 h p.i., read-out: Biodistribution, Seminal glands): 0.48 ± 0.13 %ID/g
tissue uptake at 4 h ([1]; male, seminal glands, 4 h p.i., read-out: Biodistribution, Seminal glands): 0.32 ± 0.15 %ID/g
tissue uptake at 24 h ([1]; male, seminal glands, 24 h p.i., read-out: Biodistribution, Seminal glands): 0.1 ± 0.04 %ID/g
tissue uptake at 120 h ([1]; male, seminal glands, 120 h p.i., read-out: Biodistribution, Seminal glands): 0.04 ± 0.02 %ID/g
tissue uptake at 1 h ([1]; male, testes, 1 h p.i., read-out: Biodistribution, Testes): 1.3 ± 0.4 %ID/g
tissue uptake at 4 h ([1]; male, testes, 4 h p.i., read-out: Biodistribution, Testes): 0.75 ± 0.26 %ID/g
tissue uptake at 24 h ([1]; male, testes, 24 h p.i., read-out: Biodistribution, Testes): 0.32 ± 0.17 %ID/g
tissue uptake at 120 h ([1]; male, testes, 120 h p.i., read-out: Biodistribution, Testes): 0.2 ± 0.11 %ID/g
tissue uptake at 1 h ([1]; adrenal glands, 1 h p.i., read-out: Biodistribution, Adrenal glands): 2.62 ± 1.48 %ID/g
tissue uptake at 4 h ([1]; adrenal glands, 4 h p.i., read-out: Biodistribution, Adrenal glands): 1.31 ± 0.56 %ID/g
tissue uptake at 24 h ([1]; adrenal glands, 24 h p.i., read-out: Biodistribution, Adrenal glands): 0.41 ± 0.35 %ID/g
tissue uptake at 120 h ([1]; adrenal glands, 120 h p.i., read-out: Biodistribution, Adrenal glands): 0.33 ± 0.23 %ID/g
tissue uptake at 1 h ([1]; blood, 1 h p.i., read-out: Biodistribution, Blood): 8.32 ± 2.74 %ID/g
tissue uptake at 4 h ([1]; blood, 4 h p.i., read-out: Biodistribution, Blood): 2.82 ± 1.17 %ID/g
tissue uptake at 24 h ([1]; blood, 24 h p.i., read-out: Biodistribution, Blood): 0.33 ± 0.57 %ID/g
tissue uptake at 120 h ([1]; blood, 120 h p.i., read-out: Biodistribution, Blood): 0.03 ± 0.04 %ID/g
tissue uptake at 1 h ([1]; bone, 1 h p.i., read-out: Biodistribution, Bone): 0.84 ± 0.19 %ID/g
tissue uptake at 4 h ([1]; bone, 4 h p.i., read-out: Biodistribution, Bone): 0.51 ± 0.11 %ID/g
tissue uptake at 24 h ([1]; bone, 24 h p.i., read-out: Biodistribution, Bone): 0.31 ± 0.08 %ID/g
tissue uptake at 120 h ([1]; bone, 120 h p.i., read-out: Biodistribution, Bone): 0.17 ± 0.07 %ID/g
tissue uptake at 1 h ([1]; brain, 1 h p.i., read-out: Biodistribution, Brain): 0.13 ± 0.03 %ID/g
tissue uptake at 4 h ([1]; brain, 4 h p.i., read-out: Biodistribution, Brain): 0.06 ± 0.02 %ID/g
tissue uptake at 24 h ([1]; brain, 24 h p.i., read-out: Biodistribution, Brain): 0.01 ± 0.02 %ID/g
tissue uptake at 120 h ([1]; brain, 120 h p.i., read-out: Biodistribution, Brain): 0.01 ± 0.01 %ID/g
tissue uptake at 1 h ([1]; fat, 1 h p.i., read-out: Biodistribution, Fat): 0.61 ± 0.23 %ID/g
tissue uptake at 4 h ([1]; fat, 4 h p.i., read-out: Biodistribution, Fat): 0.39 ± 0.12 %ID/g
tissue uptake at 24 h ([1]; fat, 24 h p.i., read-out: Biodistribution, Fat): 0.1 ± 0.13 %ID/g
tissue uptake at 120 h ([1]; fat, 120 h p.i., read-out: Biodistribution, Fat): 0.05 ± 0.05 %ID/g
tissue uptake at 1 h ([1]; heart, 1 h p.i., read-out: Biodistribution, Heart): 2.03 ± 0.68 %ID/g
tissue uptake at 4 h ([1]; heart, 4 h p.i., read-out: Biodistribution, Heart): 0.8 ± 0.32 %ID/g
tissue uptake at 24 h ([1]; heart, 24 h p.i., read-out: Biodistribution, Heart): 0.18 ± 0.17 %ID/g
tissue uptake at 120 h ([1]; heart, 120 h p.i., read-out: Biodistribution, Heart): 0.09 ± 0.04 %ID/g
tissue uptake at 1 h ([1]; intestine, 1 h p.i., read-out: Biodistribution, Intestine): 1.34 ± 0.28 %ID/g
tissue uptake at 4 h ([1]; intestine, 4 h p.i., read-out: Biodistribution, Intestine): 2.91 ± 4.94 %ID/g
tissue uptake at 24 h ([1]; intestine, 24 h p.i., read-out: Biodistribution, Intestine): 0.43 ± 0.32 %ID/g
tissue uptake at 120 h ([1]; intestine, 120 h p.i., read-out: Biodistribution, Intestine): 0.08 ± 0.07 %ID/g
tissue uptake at 1 h ([1]; kidneys, 1 h p.i., read-out: Biodistribution, Kidneys): 11.7 ± 5.52 %ID/g
tissue uptake at 4 h ([1]; kidneys, 4 h p.i., read-out: Biodistribution, Kidneys): 11.6 ± 5.03 %ID/g
tissue uptake at 24 h ([1]; kidneys, 24 h p.i., read-out: Biodistribution, Kidneys): 8.63 ± 6.4 %ID/g
tissue uptake at 120 h ([1]; kidneys, 120 h p.i., read-out: Biodistribution, Kidneys): 1.98 ± 0.72 %ID/g
tissue uptake at 1 h ([1]; liver, 1 h p.i., read-out: Biodistribution, Liver): 3.45 ± 0.31 %ID/g
tissue uptake at 4 h ([1]; liver, 4 h p.i., read-out: Biodistribution, Liver): 3.83 ± 0.28 %ID/g
tissue uptake at 24 h ([1]; liver, 24 h p.i., read-out: Biodistribution, Liver): 2.41 ± 0.34 %ID/g
tissue uptake at 120 h ([1]; liver, 120 h p.i., read-out: Biodistribution, Liver): 0.9 ± 0.12 %ID/g
tissue uptake at 1 h ([1]; lungs, 1 h p.i., read-out: Biodistribution, Lungs): 5.11 ± 2.81 %ID/g
tissue uptake at 4 h ([1]; lungs, 4 h p.i., read-out: Biodistribution, Lungs): 2.46 ± 0.54 %ID/g
tissue uptake at 24 h ([1]; lungs, 24 h p.i., read-out: Biodistribution, Lungs): 0.42 ± 0.34 %ID/g
tissue uptake at 120 h ([1]; lungs, 120 h p.i., read-out: Biodistribution, Lungs): 0.54 ± 0.87 %ID/g
tissue uptake at 1 h ([1]; muscle, 1 h p.i., read-out: Biodistribution, Muscle): 0.79 ± 0.22 %ID/g
tissue uptake at 4 h ([1]; muscle, 4 h p.i., read-out: Biodistribution, Muscle): 0.39 ± 0.1 %ID/g
tissue uptake at 24 h ([1]; muscle, 24 h p.i., read-out: Biodistribution, Muscle): 0.06 ± 0.05 %ID/g
tissue uptake at 120 h ([1]; muscle, 120 h p.i., read-out: Biodistribution, Muscle): 0.03 ± 0.02 %ID/g
tissue uptake at 1 h ([1]; pancreas, 1 h p.i., read-out: Biodistribution, Pancreas): 1.14 ± 0.32 %ID/g
tissue uptake at 4 h ([1]; pancreas, 4 h p.i., read-out: Biodistribution, Pancreas): 0.52 ± 0.27 %ID/g
tissue uptake at 24 h ([1]; pancreas, 24 h p.i., read-out: Biodistribution, Pancreas): 0.17 ± 0.19 %ID/g
tissue uptake at 120 h ([1]; pancreas, 120 h p.i., read-out: Biodistribution, Pancreas): 0.09 ± 0.05 %ID/g
tissue uptake at 1 h ([1]; spleen, 1 h p.i., read-out: Biodistribution, Spleen): 2.1 ± 1.03 %ID/g
tissue uptake at 4 h ([1]; spleen, 4 h p.i., read-out: Biodistribution, Spleen): 1.46 ± 0.67 %ID/g
tissue uptake at 24 h ([1]; spleen, 24 h p.i., read-out: Biodistribution, Spleen): 1.05 ± 0.45 %ID/g
tissue uptake at 120 h ([1]; spleen, 120 h p.i., read-out: Biodistribution, Spleen): 0.65 ± 0.34 %ID/g
tissue uptake at 1 h ([1]; stomach, 1 h p.i., read-out: Biodistribution, Stomach): 0.89 ± 0.5 %ID/g
tissue uptake at 4 h ([1]; stomach, 4 h p.i., read-out: Biodistribution, Stomach): 1.65 ± 2.22 %ID/g
tissue uptake at 24 h ([1]; stomach, 24 h p.i., read-out: Biodistribution, Stomach): 1.17 ± 0.77 %ID/g
tissue uptake at 120 h ([1]; stomach, 120 h p.i., read-out: Biodistribution, Stomach): 0.19 ± 0.21 %ID/g
tissue uptake at 1 h ([1]; thyroid, 1 h p.i., read-out: Biodistribution, Thyroid): 3.41 ± 0.51 %ID/g
tissue uptake at 4 h ([1]; thyroid, 4 h p.i., read-out: Biodistribution, Thyroid): 3.86 ± 0.39 %ID/g
tissue uptake at 24 h ([1]; thyroid, 24 h p.i., read-out: Biodistribution, Thyroid): 4.03 ± 1.33 %ID/g
tissue uptake at 120 h ([1]; thyroid, 120 h p.i., read-out: Biodistribution, Thyroid): 0.86 ± 0.31 %ID/g
tissue to tissue ratio at 1 h ([1]; tumour/blood, 1 h p.i., read-out: Tumour/blood): 1.82 ± 0.82
tissue to tissue ratio at 4 h ([1]; tumour/blood, 4 h p.i., read-out: Tumour/blood): 8.59 ± 4.19
tissue to tissue ratio at 24 h ([1]; tumour/blood, 24 h p.i., read-out: Tumour/blood): 87.6 ± 47.8
tissue to tissue ratio at 120 h ([1]; tumour/blood, 120 h p.i., read-out: Tumour/blood): 52.9 ± 41.3
tissue to tissue ratio at 1 h ([1]; tumour/kidney, 1 h p.i., read-out: Tumour/kidney): 1.41 ± 0.71
tissue to tissue ratio at 4 h ([1]; tumour/kidney, 4 h p.i., read-out: Tumour/kidney): 2.05 ± 0.86
tissue to tissue ratio at 24 h ([1]; tumour/kidney, 24 h p.i., read-out: Tumour/kidney): 1.14 ± 0.5
tissue to tissue ratio at 120 h ([1]; tumour/kidney, 120 h p.i., read-out: Tumour/kidney): 0.42 ± 0.18
tissue to tissue ratio at 1 h ([1]; tumour/muscle, 1 h p.i., read-out: Tumour/muscle): 18.7 ± 8.13
tissue to tissue ratio at 4 h ([1]; tumour/muscle, 4 h p.i., read-out: Tumour/muscle): 57.7 ± 22.4
tissue to tissue ratio at 24 h ([1]; tumour/muscle, 24 h p.i., read-out: Tumour/muscle): 167 ± 88.7
tissue to tissue ratio at 120 h ([1]; tumour/muscle, 120 h p.i., read-out: Tumour/muscle): 38.9 ± 24
excreta dose per gram or mL at 1 h ([1]; urine, 1 h p.i.): 87.9 ± 48.2 %ID/g
excreta dose per gram or mL at 4 h ([1]; urine, 4 h p.i.): 113 ± 29.4 %ID/g
excreta dose per gram or mL at 24 h ([1]; urine, 24 h p.i.): 6.11 ± 1.66 %ID/g
excreta dose per gram or mL at 120 h ([1]; urine, 120 h p.i.): 1.21 ± 0.21 %ID/g
Biodistribution, B16F10 tumour (B16F10 mouse melanoma; 1 h p.i.): 13.3 ± 3.34 % ID/g
Biodistribution, B16F10 tumour (B16F10 mouse melanoma; 4 h p.i.): 20.8 ± 5.37 % ID/g
Biodistribution, B16F10 tumour (B16F10 mouse melanoma; 24 h p.i.): 7.59 ± 1.70 % ID/g
Biodistribution, B16F10 tumour (B16F10 mouse melanoma; 120 h p.i.): 0.79 ± 0.39 % ID/g
